In assay [1] the test system is KMS-12-BM myeloma cell line. Nature of the assay: Pim cell assay: phospho-BAD (S112) and total BAD in KMS-12-BM cells. The following applies: 1 hour and 50 minutes incubation, read-out: KMS-12-BM IC50 IP. Type of assay: cell-based. The method, then: The KMS-12-BM myeloma cell line was used to determine the in vitro cellular inhibition of Pim kinases. Disruption of Pim signaling by Pim inhibitors was determined by measuring the levels of phospho-BAD (S112) and total BAD. […] The cells were then incubated overnight at 37° C., 5% CO2. […] In addition to the 10-point dosing curve of the test compound, DMSO alone was run as a control. This dilution in DMSO was then diluted again into cell growth medium. Aliquots (11.1 uL) of the compound diluted in growth medium were then transferred to the appropriate wells of the 96-well plates containing cells to yield a final DMSO concentration of 0.3%. The cell plates were then incubated with compound for 1 hour and 50 minutes at 37° C., 5% CO2. After the 1 hour and 50 min incubation, the cell plates were spun at 1000 RPM for 10 minutes and the compound-containing medium was removed. […] The cell plates containing lysis buffer were then immediately stored at −70° C. These prepared lysates were then assayed for phospho-(S112) and total-BAD according to the manufacturer's protocol (Meso Scale Diagnostics, Cat # K15103D-3). The plates were read on the MSD Sector Imager 6000, and results were calculated according to the assay protocol: ((% Phosphoprotein=((2×Phospho signal)/(Phospho signal+Total signal))×100)).

Another assay deals with Pim-1 (Homo sapiens (Human), UniProt P11309). Nature of the assay: Pim enzyme assay (HTRF, phosphorylation of biotinylated-BAD (S112) peptide), Pim-1. In kind it is biochemical. The following applies: full length recombinant Pim-1, biotinylated-BAD (S112) peptide, HTRF. An excerpt: (§1) Full-length human cDNAs encoding Pim-1 (MGC ID 3913552) or Pim-2 (IMAGE ID 5092935) were purchased from Invitrogen, Carlsbad, Calif. These cDNAs were used as templates in PCR reactions to produce full-length DNA clones of the PIMs. Oligonucleotide PCR primers for Pim-1 were 5′-[…]-3′ and 5′-[…]-3′. Oligonucleotide PCR primers for Pim-2 were 5′-[…]-3′ and 5′-[…]-3′. PCR products were digested with BclI and EcoRI for Pim-1 and BamHI and EcoRI for Pim-2 and ligated into a modified baculovirus transfer vector (pFastBac 1) cleaved with BamHI and EcoRI. For bacterial expression, the same cleaved PCR products encoding Pim-1 or Pim-2 were ligated into a modified E. coli expression vector pET28(a) cleaved with BamHI and EcoRI. Amino-terminal hexahistidine tags followed by a thrombin cleavage site were previously added to the vectors using standard methods of molecular biology. Recombinant baculoviruses expressing Pim-1 or Pim-2 were made using standard methods (Fastbac manual, Invitrogen, Carlsbad, Calif.). Infection of Sf9 cells was done at an m.o.i. of greater than 5 for 24-48 h. Cells were harvested by centrifugation and frozen at −80 C. For E. coli expression, cells carrying pET28-His6-Th-Pim-1 or pET28-His6-Th-Pim-2 were picked from a single colony and grown o/n in LB media. The o/n culture was used to inoculate a 2 liter flask with 500 mL media. This was grown o/n and used to inoculate 15-20 liters of Terrific Broth in a New Brunswick Scientific fermentor. The E. coli were grown at 37° C. to and OD600>1.6. The temperature was dropped to 18° C. and o/n expression was induced with 0.5 mM IPTG. Cells were harvested by centrifugation and frozen at −80° C.
Chain of Pim-1 (P11309 whole entry): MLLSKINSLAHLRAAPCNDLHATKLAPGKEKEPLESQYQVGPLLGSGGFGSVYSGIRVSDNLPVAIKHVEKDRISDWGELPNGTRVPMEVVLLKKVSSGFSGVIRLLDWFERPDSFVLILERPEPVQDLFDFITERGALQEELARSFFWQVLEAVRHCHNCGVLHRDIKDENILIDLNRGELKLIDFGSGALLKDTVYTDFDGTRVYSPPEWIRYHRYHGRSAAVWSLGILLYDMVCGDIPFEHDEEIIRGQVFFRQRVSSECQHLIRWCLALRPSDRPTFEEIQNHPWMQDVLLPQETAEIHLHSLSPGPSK
(§2) The frozen cell pellets were thawed by stirring in chilled lysis buffer (0.05 M HEPES, pH 8.0, 0.25 M NaCl, 0.01 M 2-mercaptoethanol, 10% (w/v) glycerol, 0.5% (v/v) protease inhibitor cocktail (Sigma P-8340) at a ratio of 1 L/200 g cells until homogeneous. The thawed suspension was applied to a microfluidizer at 10,000 PSI to disrupt the cells and the whole lysates were clarified by centrifugation at 50,000×g for 90 min, 4° C. Imidazole was added to the clarified lysate to a final concentration of 2.5 mM and the lysate was mixed with 10 mL of Talon resin (Clontech) and the slurry rocked gently overnight at 4° C. The slurry was centrifuged at 1,000×g for 5 min, the supernatant decanted, and the resin suspended in 40 mL of lysis wash buffer (lysis buffer at 0.75 M NaCl). This step was repeated 3× and the resin was transferred to a 2.5 cm glass column. Ten column volumes of wash buffer (0.05 M HEPES, pH 8.0, 0.1 M NaCl, 0.01 M 2-mercaptoethanol, 10% (w/v) glycerol) were applied to the resin followed by 10 column volumes of elution buffer (0.05 M HEPES, pH 8.0, 0.25 M NaCl, 0.01 M 2-mercaptoethanol, 10% (w/v) glycerol, 0.1 M imidazole). Fractions were analyzed by SDS-PAGE and those containing the protein of interest were pooled and concentrated. The concentrated protein was applied to an Amersham Superdex 75 (XK 26/60) column equilibrated in 0.025 M Tris-HCl, pH 7.5, 0.1 M NaCl, 0.01 M 2-mercaptoethanol, 10% (w/v) glycerol. […] Fractions containing the monomeric protein of interest were pooled, concentrated to ˜2 mg/mL, and stored at −80° C.
(§3) The phosphorylation of biotinylated-BAD (S112) peptide by full length recombinant Pim-1, Pim-2, or Pim-3 protein was detected with streptavidin:Allophycocyanin (APC) conjugate and a europium (Eu) labeled antibody directed against phosphorylated-BAD (S112). Excitation of Eu by a high energy laser light (337 nm) leads to a transfer of energy to the APC molecule, and results in an emission at 665 nm. The fluorescence is directly proportional to the amount of phosphorylated BAD peptide present in the reaction.

For another assay, the target named is Pim-2 (Homo sapiens (Human), UniProt Q9P1W9). Put plainly: Pim enzyme assay (HTRF, phosphorylation of biotinylated-BAD (S112) peptide), Pim-2. Type of assay: biochemical. The following applies: full length recombinant Pim-2, biotinylated-BAD (S112) peptide, HTRF.
Chain of Pim-2 (Q9P1W9 whole entry): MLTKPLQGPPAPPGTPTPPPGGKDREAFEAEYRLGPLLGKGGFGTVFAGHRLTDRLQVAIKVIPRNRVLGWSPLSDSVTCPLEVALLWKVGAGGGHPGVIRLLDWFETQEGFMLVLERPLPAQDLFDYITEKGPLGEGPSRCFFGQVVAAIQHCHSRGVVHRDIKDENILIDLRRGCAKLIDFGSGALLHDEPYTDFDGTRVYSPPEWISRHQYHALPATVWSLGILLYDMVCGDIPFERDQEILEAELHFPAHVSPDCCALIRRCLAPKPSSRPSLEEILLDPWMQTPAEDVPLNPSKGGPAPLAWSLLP
Source text: as §1, §2, §3
(In general: Time-resolved FRET reads energy transfer from a long-lived donor to a nearby acceptor.)

Setting [2] is: 96-well, read-out: Pim-1 IC50 IP.
The mark [3] stands for this setting: 96-well, read-out: Pim-2 IC50 IP.

Like-named read-outs stand apart in the source and are kept apart here.

Consider `C[C@H]1CC[C@H](N)CN1c1ccncc1Nc1ncc2ccc(-c3ncccc3F)nn12` (single isomer, unassigned) [Example 97, N-(4-((trans)-5-amino-2-methylpiperidin-1-yl)pyridin-3-yl)-2-(3-fluoropyridin-2-yl)imidazo[1,5-b]pyridazin-7-amine tris(2,2,2-trifluoroacetate)], for which the IC50 in assay [1] (Homo sapiens, KMS-12-BM) amounted to 362 nM.
In the case of `C[C@H]1CC[C@H](N)CN1c1ccncc1Nc1ncc2ccc(-c3c(F)cccc3F)nn12` (single isomer, unassigned) [Example 87, N-(4-(5-amino-2-methylpiperidin-1-yl)pyridin-3-yl)-2-(2,6-difluorophenyl)imidazo[1,5-b]pyridazin-7-amine tris(2,2,2-trifluoroacetate)], the IC50 in assay [1] (tris(2,2,2-trifluoroacetate)) was found to be 48.8 nM.
Turning to `C[C@@H]1C[C@H](N)CN(c2ccncc2Nc2ncc3ccc(-c4c(F)cccc4F)nn23)C1` (racemic) [Example 37, rac-N-(4-((cis)-3-amino-5-methylpiperidin-1-yl)pyridin-3-yl)-2-(2,6-difluorophenyl)imidazo[1,5-b]pyridazin-7-amine tris(2,2,2-trifluoroacetate)], the IC50 in assay [1] (Homo sapiens, KMS-12-BM) was determined as 95 nM.
For `C[C@H]1CC[C@@H](N)CN1c1ccncc1Nc1ncc2ccc(-c3ncccc3F)nn12` (single isomer, unassigned) [Example 94, N-(4-((cis)-5-amino-2-methylpiperidin-1-yl)pyridin-3-yl)-2-(3-fluoropyridin-2-yl)imidazo[1,5-b]pyridazin-7-amine tris(2,2,2-trifluoroacetate)], the IC50 in assay [1] (tris(2,2,2-trifluoroacetate)) came to 14100 nM.
For the compound `N[C@@H]1CN(c2ccncc2Nc2ncc3ccc(-c4c(F)cccc4F)nn23)CC[C@H]1F` (racemic) [Example 43, rac-N-(4-(trans-3-amino-4-fluoropiperidin-1-yl)pyridin-3-yl)-2-(2,6-difluorophenyl)imidazo[1,5-b]pyridazin-7-amine], the IC50 in assay [1] (Homo sapiens, KMS-12-BM) is 465 nM.
On to `O=c1ccc(-c2ccncc2Nc2ncc3ccc(-c4c(F)cccc4F)nn23)c[nH]1` [Example 28, 3′-((2-(2,6-difluorophenyl)imidazo[1,5-b]pyridazin-7-yl)amino)-3,4′-bipyridin-6(1 H)-one], for which the IC50 came to 38 nM at Pim-1 (read-out: Pim_1_IC50) and 281 nM on Pim-2 (read-out: Pim2_IC50).
On to `C[C@@H]1CN(c2ccncc2Nc2ncc3ccc(-c4c(F)cccc4F)nn23)[C@@H](C)CN1` (single isomer, unassigned) [Example 52, 2-(2,6-difluorophenyl)-N-(4-((trans)-2,5-dimethyl-1-piperazinyl)-3-pyridinyl)imidazo[1,5-b]pyridazin-7-amine], for which the IC50 in assay [1] (Homo sapiens, KMS-12-BM) is above 15800 nM.
As to `C[C@H]1CC[C@H](N)CN1c1ccncc1Nc1ncc2ccc(-c3c(F)cccc3F)nn12` (single isomer, unassigned) [Example 88, N-(4-(5-amino-2-methylpiperidin-1-yl)pyridin-3-yl)-2-(2,6-difluorophenyl)imidazo[1,5-b]pyridazin-7-amine tris(2,2,2-trifluoroacetate)], the IC50 in assay [1] (tris(2,2,2-trifluoroacetate)) amounted to 9820 nM.
With `N[C@@H]1CN(c2ccncc2Nc2ncc3ccc(-c4c(F)cccc4F)nn23)CC[C@H]1F` (single isomer, unassigned) [Example 45, N-(4-(trans-3-amino-4-fluoropiperidin-1-yl)pyridin-3-yl)-2-(2,6-difluorophenyl)imidazo[1,5-b]pyridazin-7-amine], the IC50 in assay [1] was found to be 1070 nM.
Consider `COC(C)CN(C)c1ccncc1Nc1ncc2ccc(-c3c(F)cccc3F)nn12` (stereo not drawn) [Example 77, N3-(2-(2,6-difluorophenyl)imidazo[1,5-b]pyridazin-7-yl)-N4-(2-methoxypropyl)-N4-methylpyridine-3,4-diamine], for which the IC50 was 150 nM at Pim-1 (setting [2]) and above 1000 nM on Pim-2 (setting [3]).
Regarding `O[C@@H]1CCCN(c2ccncc2Nc2ncc3ccc(-c4nccs4)nn23)C1` [Example 18, (3R)-1-(3-((2-(1,3-thiazol-2-yl)imidazo[1,5-b]pyridazin-7-yl)amino)-4-pyridinyl)-3-piperidinol], the results for the IC50 on Pim-1 (read-out: Pim_1_IC50) and on Pim-2 (read-out: Pim2_IC50) were 99 nM and above 1000 nM, respectively.
As to `C[C@@H]1C[C@H](N)CN(c2ccncc2Nc2ncc3ccc(-c4c(F)cccc4F)nn23)C1` (single isomer, unassigned) [Example 39, N-(4-((cis)-3-amino-5-methylpiperidin-1-yl)pyridin-3-yl)-2-(2,6-difluorophenyl)imidazo[1,5-b]pyridazin-7-amine], the IC50 in assay [1] was 1750 nM.
As to `C[C@H]1CN(c2ccncc2Nc2ncc3ccc(-c4c(F)cccc4F)nn23)[C@@H](C)CN1` [Example 49, 2-(2,6-difluorophenyl)-N-(4-((2S,5S)-2,5-dimethylpiperazin-1-yl)pyridin-3-yl)imidazo[1,5-b]pyridazin-7-amine], the IC50 in assay [1] (Homo sapiens, KMS-12-BM) was found to be 12100 nM.
For `C[C@@H]1C[C@H](N)CN(c2ccncc2Nc2ncc3ccc(-c4c(F)cccc4F)nn23)C1` (single isomer, unassigned) [Example 38, N-(4-((cis)-3-amino-5-methylpiperidin-1-yl)pyridin-3-yl)-2-(2,6-difluorophenyl)imidazo[1,5-b]pyridazin-7-amine], in assay [1], the IC50 amounted to 27.6 nM.
For the compound `CN[C@H]1CCCN(c2ccncc2Nc2ncc3ccc(-c4c(F)cccc4F)nn23)C1` [Example 59, (S)-2-(2,6-difluorophenyl)-N-(4-(3-(methylamino)piperidin-1-yl)pyridin-3-yl)imidazo[1,5-b]pyridazin-7-amine], the figures for the IC50 on Pim-1 (setting [2]) and at Pim-2 (setting [3]) were 2 nM and 31 nM, respectively.
On the same counts, the results for `C[C@H]1CN(c2ccncc2Nc2ncc3ccc(-c4c(F)cccc4F)nn23)CCN1` [Example 58, (S)-2-(2,6-difluorophenyl)-N-(4-(3-methylpiperazin-1-yl)pyridin-3-yl)imidazo[1,5-b]pyridazin-7-amine bis(2,2,2-trifluoroacetate)] are 11.8 nM and 65.9 nM.

The values above are taken from patent US9187486B2 (AMGEN INC., priority 2011, dated 2015).
